# Measured values taken from patent publication US11572399B2, “Long-acting GIP peptide analogues” (University of Copenhagen, priority 2017, dated 2023).
# Peptide text beside a SMILES is read from it. * marks the point of attachment. C16 diacid = O=C(O)CCCCCCCCCCCCCCC(=O)*
# Target: T1, human GIP receptor (Homo sapiens, UniProt P48546)
# T1 construct: host or cells: COS-7, transient transfection (calcium phosphate), cDNA in pCMV-Script
# T1 sequence (P48546 22-466): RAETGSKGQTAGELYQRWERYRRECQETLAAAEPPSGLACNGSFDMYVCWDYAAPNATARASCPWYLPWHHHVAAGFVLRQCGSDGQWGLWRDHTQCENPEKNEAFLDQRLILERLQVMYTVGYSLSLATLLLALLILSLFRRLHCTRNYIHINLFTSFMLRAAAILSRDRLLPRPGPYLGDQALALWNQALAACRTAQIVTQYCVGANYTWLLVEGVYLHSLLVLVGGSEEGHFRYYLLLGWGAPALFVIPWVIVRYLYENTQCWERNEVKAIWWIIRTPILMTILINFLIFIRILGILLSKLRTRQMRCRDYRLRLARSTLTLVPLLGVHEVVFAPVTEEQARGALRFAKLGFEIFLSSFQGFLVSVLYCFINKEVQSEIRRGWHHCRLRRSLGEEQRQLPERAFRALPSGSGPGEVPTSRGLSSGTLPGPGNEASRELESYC
# Test: cAMP accumulation assay, agonism (ligand alone)
# Assay type: cell-based
# Settings: COS-7 cells, Table 1; for Emax: COS-7, intrinsic cAMP activity; for EC50: read-out: cAMP agonism nM (EC50)
# Description: COS-7 cells were cultured at 10% CO2 and 37° C. in Dulbecco's modified Eagle's medium 1885 supplemented with 10% fetal bovine serum, 2 mM glutamine, 180 units/ml penicillin, and 45 µg/ml streptomycin. Transient transfection of the COS-7 cells for cAMP accumulation and competition binding was performed using the calcium phosphate precipitation method with the addition of chloroquine^46-47.
# Transient transfected COS-7 cells expressing the human GIP receptor were seeded in white 96-well plates with a density of 3.5*10^4/well. The day after, the cells were washed twice with Hepes buffered saline (HBS) buffer and incubated with HBS and 1 mM 3-isobutyl-1-methylxanthine (IBMX) for 30 min at 37° C. To test for agonistic properties, ligands were added and incubated for 30 min at 37° C. In order to test for antagonistic properties, the cells were preincubated with the antagonists for 10 min prior to the addition of the agonist and subsequent incubated for 20 additional min. The HitHunter™ cAMP XS assay (DiscoveRx) was carried out according to the manufacturer's instructions.
# IC50, EC50, and Ki values were determined by nonlinear regression. These were carried out with the GraphPad Prism 6.0 software (GraphPad, San Diego, Calif., USA) and Microsoft Excel™. Ki values were based on the formula for one class of binding sites in homologous competition binding studies and the Cheng Prussoffs formula, respectively (DeBlasi et al., 1989). To determine the HSA binding potential, the fold change in affinity (as determined by IC50) was calculated as IC50 (plus HSA)/IC50 (minus HSA).
Compound,Emax,EC50,cAMP agonism Emax (intrinsic cAMP activity)
"CC[C@H](C)[C@H](NC(=O)[C@H](CO)NC(=O)[C@H](Cc1ccc(O)cc1)NC(=O)[C@H](CC(=O)O)NC(=O)[C@H](CO)NC(=O)[C@@H](NC(=O)[C@H](Cc1ccccc1)NC(=O)[C@@H](NC(=O)CNC(=O)[C@H](CCC(=O)O)NC(=O)CCCCCCCCCCC(=O)O)[C@@H](C)O)[C@@H](C)CC)C(=O)N[C@@H](C)C(=O)N[C@@H](CCSC)C(=O)N[C@@H](CC(=O)O)C(=O)N[C@@H](CCCCN)C(=O)N[C@H](C(=O)N[C@@H](CCCNC(=N)N)C(=O)N[C@@H](CCC(N)=O)C(=O)N[C@@H](CCC(N)=O)C(=O)N[C@@H](CC(=O)O)C(=O)N[C@@H](Cc1ccccc1)C(=O)N[C@H](C(=O)N[C@@H](CC(N)=O)C(=O)N[C@@H](Cc1c[nH]c2ccccc12)C(=O)N[C@@H](CC(C)C)C(=O)N[C@@H](CC(C)C)C(=O)N[C@@H](C)C(=O)N[C@@H](CCC(N)=O)C(=O)N[C@@H](CCCNC(=N)N)C(N)=O)C(C)C)[C@@H](C)CC [AT149, [hGIP(3-30)NH2[H18R; K30R]-C12diacid/3]]",50%,24 nM,–
"CC[C@H](C)[C@H](NC(=O)[C@H](CO)NC(=O)[C@H](Cc1ccc(O)cc1)NC(=O)[C@H](CC(=O)O)NC(=O)[C@H](CO)NC(=O)[C@@H](NC(=O)[C@H](Cc1ccccc1)NC(=O)[C@@H](N)CCCCNC(=O)CCCCCCCCCCCCCCC(=O)O)[C@@H](C)CC)C(=O)N[C@@H](C)C(=O)N[C@@H](CCSC)C(=O)N[C@@H](CC(=O)O)C(=O)N[C@@H](CCCCN)C(=O)N[C@H](C(=O)N[C@@H](Cc1c[nH]cn1)C(=O)N[C@@H](CCC(N)=O)C(=O)N[C@@H](CCC(N)=O)C(=O)N[C@@H](CC(=O)O)C(=O)N[C@@H](Cc1ccccc1)C(=O)N[C@H](C(=O)N[C@@H](CC(N)=O)C(=O)N[C@@H](Cc1c[nH]c2ccccc12)C(=O)N[C@@H](CC(C)C)C(=O)N[C@@H](CC(C)C)C(=O)N[C@@H](C)C(=O)N[C@@H](CCC(N)=O)C(=O)N[C@@H](CCCCN)C(N)=O)C(C)C)[C@@H](C)CC [AT293, [hGIP(5-30)NH2[T5KK]-C16diacid/5]]",0%,–,–
"CC[C@H](C)[C@H](NC(=O)[C@H](CO)NC(=O)[C@H](Cc1ccc(O)cc1)NC(=O)[C@H](CC(=O)O)NC(=O)[C@H](CO)NC(=O)[C@@H](NC(=O)[C@H](Cc1ccccc1)NC(=O)[C@@H](NC(=O)CNC(=O)[C@@H](N)CCCCNC(=O)CCCCCCCCCCCCCCC(=O)O)[C@@H](C)O)[C@@H](C)CC)C(=O)N[C@@H](C)C(=O)N[C@@H](CCSC)C(=O)N[C@@H](CC(=O)O)C(=O)N[C@@H](CCCCN)C(=O)N[C@H](C(=O)N[C@@H](Cc1c[nH]cn1)C(=O)N[C@@H](CCC(N)=O)C(=O)N[C@@H](CCC(N)=O)C(=O)N[C@@H](CC(=O)O)C(=O)N[C@@H](Cc1ccccc1)C(=O)N[C@H](C(=O)N[C@@H](CC(N)=O)C(=O)N[C@@H](Cc1c[nH]c2ccccc12)C(=O)N[C@@H](CC(C)C)C(=O)N[C@@H](CC(C)C)C(=O)N[C@@H](C)C(=O)N[C@@H](CCC(N)=O)C(=O)N[C@@H](CCCCN)C(N)=O)C(C)C)[C@@H](C)CC [AT294, [hGIP(3-30)NH2[E3K]-C16diacid/3]]",74%,–,–
"CC[C@H](C)[C@H](NC(=O)[C@H](CO)NC(=O)[C@H](Cc1ccc(O)cc1)NC(=O)[C@H](CC(=O)O)NC(=O)[C@H](CO)NC(=O)[C@@H](NC(=O)[C@H](Cc1ccccc1)NC(=O)[C@@H](NC(=O)[C@H](CCCCNC(=O)CCCCCCCCCCCCCCC(=O)O)NC(=O)[C@@H](N)CCC(=O)O)[C@@H](C)O)[C@@H](C)CC)C(=O)N[C@@H](C)C(=O)N[C@@H](CCSC)C(=O)N[C@@H](CC(=O)O)C(=O)N[C@@H](CCCCN)C(=O)N[C@H](C(=O)N[C@@H](Cc1c[nH]cn1)C(=O)N[C@@H](CCC(N)=O)C(=O)N[C@@H](CCC(N)=O)C(=O)N[C@@H](CC(=O)O)C(=O)N[C@@H](Cc1ccccc1)C(=O)N[C@H](C(=O)N[C@@H](CC(N)=O)C(=O)N[C@@H](Cc1c[nH]c2ccccc12)C(=O)N[C@@H](CC(C)C)C(=O)N[C@@H](CC(C)C)C(=O)N[C@@H](C)C(=O)N[C@@H](CCC(N)=O)C(=O)N[C@@H](CCCCN)C(N)=O)C(C)C)[C@@H](C)CC [AT295, [hGIP(3-30)NH2[G4K]-C16diacid/4]]",78.6%,2.6 nM,–
"CC[C@H](C)[C@H](NC(=O)[C@H](CO)NC(=O)[C@H](CCCCNC(=O)CCCCCCCCCCCCCCC(=O)O)NC(=O)[C@H](CC(=O)O)NC(=O)[C@H](CO)NC(=O)[C@@H](NC(=O)[C@H](Cc1ccccc1)NC(=O)[C@@H](NC(=O)CNC(=O)[C@@H](N)CCC(=O)O)[C@@H](C)O)[C@@H](C)CC)C(=O)N[C@@H](C)C(=O)N[C@@H](CCSC)C(=O)N[C@@H](CC(=O)O)C(=O)N[C@@H](CCCCN)C(=O)N[C@H](C(=O)N[C@@H](Cc1c[nH]cn1)C(=O)N[C@@H](CCC(N)=O)C(=O)N[C@@H](CCC(N)=O)C(=O)N[C@@H](CC(=O)O)C(=O)N[C@@H](Cc1ccccc1)C(=O)N[C@H](C(=O)N[C@@H](CC(N)=O)C(=O)N[C@@H](Cc1c[nH]c2ccccc12)C(=O)N[C@@H](CC(C)C)C(=O)N[C@@H](CC(C)C)C(=O)N[C@@H](C)C(=O)N[C@@H](CCC(N)=O)C(=O)N[C@@H](CCCCN)C(N)=O)C(C)C)[C@@H](C)CC [AT301, [hGIP(3-30)NH2[Y10K]-C16diacid/10]] (H-EGTFISDK(C16 diacid)SIAMDKIHQQDFVNWLLAQK-NH2; N-terminus assumed)",8.5%,12 nM,–
"CC[C@H](C)[C@H](NC(=O)[C@H](CCCCNC(=O)CCCCCCCCCCCCCCC(=O)O)NC(=O)[C@H](Cc1ccc(O)cc1)NC(=O)[C@H](CC(=O)O)NC(=O)[C@H](CO)NC(=O)[C@@H](NC(=O)[C@H](Cc1ccccc1)NC(=O)[C@@H](NC(=O)CNC(=O)[C@@H](N)CCC(=O)O)[C@@H](C)O)[C@@H](C)CC)C(=O)N[C@@H](C)C(=O)N[C@@H](CCSC)C(=O)N[C@@H](CC(=O)O)C(=O)N[C@@H](CCCCN)C(=O)N[C@H](C(=O)N[C@@H](Cc1c[nH]cn1)C(=O)N[C@@H](CCC(N)=O)C(=O)N[C@@H](CCC(N)=O)C(=O)N[C@@H](CC(=O)O)C(=O)N[C@@H](Cc1ccccc1)C(=O)N[C@H](C(=O)N[C@@H](CC(N)=O)C(=O)N[C@@H](Cc1c[nH]c2ccccc12)C(=O)N[C@@H](CC(C)C)C(=O)N[C@@H](CC(C)C)C(=O)N[C@@H](C)C(=O)N[C@@H](CCC(N)=O)C(=O)N[C@@H](CCCCN)C(N)=O)C(C)C)[C@@H](C)CC [AT302, [hGIP(3-30)NH2[S11K]-C16diacid/11]] (H-EGTFISDYK(C16 diacid)IAMDKIHQQDFVNWLLAQK-NH2; N-terminus assumed)",–,–,no ag.
"CC[C@H](C)[C@H](NC(=O)[C@H](CCCCN)NC(=O)[C@H](CC(=O)O)NC(=O)[C@H](CCSC)NC(=O)[C@H](C)NC(=O)[C@H](CCCCNC(=O)CCCCCCCCCCCCCCC(=O)O)NC(=O)[C@H](CO)NC(=O)[C@H](Cc1ccc(O)cc1)NC(=O)[C@H](CC(=O)O)NC(=O)[C@H](CO)NC(=O)[C@@H](NC(=O)[C@H](Cc1ccccc1)NC(=O)[C@@H](NC(=O)CNC(=O)[C@@H](N)CCC(=O)O)[C@@H](C)O)[C@@H](C)CC)C(=O)N[C@@H](Cc1c[nH]cn1)C(=O)N[C@@H](CCC(N)=O)C(=O)N[C@@H](CCC(N)=O)C(=O)N[C@@H](CC(=O)O)C(=O)N[C@@H](Cc1ccccc1)C(=O)N[C@H](C(=O)N[C@@H](CC(N)=O)C(=O)N[C@@H](Cc1c[nH]c2ccccc12)C(=O)N[C@@H](CC(C)C)C(=O)N[C@@H](CC(C)C)C(=O)N[C@@H](C)C(=O)N[C@@H](CCC(N)=O)C(=O)N[C@@H](CCCCN)C(N)=O)C(C)C [AT303, [hGIP(3-30)NH2[I12K]-C16diacid/12]] (H-EGTFISDYSK(C16 diacid)AMDKIHQQDFVNWLLAQK-NH2; N-terminus assumed)",24.2%,28 nM,–
"CC[C@H](C)[C@H](NC(=O)[C@H](CO)NC(=O)[C@H](Cc1ccc(O)cc1)NC(=O)[C@H](CC(=O)O)NC(=O)[C@H](CO)NC(=O)[C@@H](NC(=O)[C@H](Cc1ccccc1)NC(=O)[C@@H](NC(=O)CNC(=O)[C@@H](N)CCC(=O)O)[C@@H](C)O)[C@@H](C)CC)C(=O)N[C@@H](C)C(=O)N[C@@H](CCSC)C(=O)N[C@@H](CC(=O)O)C(=O)N[C@@H](CCCCN)C(=O)N[C@H](C(=O)N[C@@H](Cc1c[nH]cn1)C(=O)N[C@@H](CCCCNC(=O)CCCCCCCCCCCCCCC(=O)O)C(=O)N[C@@H](CCC(N)=O)C(=O)N[C@@H](CC(=O)O)C(=O)N[C@@H](Cc1ccccc1)C(=O)N[C@H](C(=O)N[C@@H](CC(N)=O)C(=O)N[C@@H](Cc1c[nH]c2ccccc12)C(=O)N[C@@H](CC(C)C)C(=O)N[C@@H](CC(C)C)C(=O)N[C@@H](C)C(=O)N[C@@H](CCC(N)=O)C(=O)N[C@@H](CCCCN)C(N)=O)C(C)C)[C@@H](C)CC [AT308, [hGIP(3-30)NH2[Q19K]-C16diacid/19]] (H-EGTFISDYSIAMDKIHK(C16 diacid)QDFVNWLLAQK-NH2; N-terminus assumed)",7.9%,–,–
